“Also recorded” adds a separate entry of the source.
Tests used:
[1] = system: specific ^125I-CYP binding sites on THP-1 membranes; settings: one-site binding model, ref Talmadge, et al., 1993; cited from earlier work
[2] = system: IL-1β production in THP-1 cells; assay: IL-1β immunoblot of THP-1 cell lysates; settings: for effect of inhibitor or antagonist alone on IL-1β generation: absence of receptor agonist, data not shown
[3] = molecular target: β-AR mediating cAMP production in THP-1 cells (Homo sapiens, UniProt P08588); assay: Iso-induced cAMP production in THP-1 cells, Schild regression analysis; type: cell-based; settings: inhibition of Iso mediated cAMP production in THP-1 cells, n = 4
[4] = system: β-AR binding sites on THP-1 cell membranes; assay: Saturation radioligand binding of 125I-CYP on crude THP-1 cell membranes; set-up: species or system human; settings: THP-1 membranes, n = 6
[5] = system: secreted IL-1β from THP-1 cells; assay: ELISA of IL-1β secreted into media of THP-1 cells; type: cell-based, human; settings: for secreted IL-1β in media: 2 h
[6] = system: inflammatory mediators secreted by THP-1 cells; assay: Cytokine antibody array of conditioned media from THP-1 cells; type: cell-based, human; settings: 2 h, n = 3
[7] = system: IL-1β production in primary human monocytes; assay: IL-1β immunoblot of primary human monocyte lysates; type: cell-based; settings: individual treatment (30 ng/mL LPS or 0.1 μM Iso alone), n = 3
[8] = individual treatment (30 ng/mL LPS or 0.1 μM Iso alone), n = 6, control 1.6 ± 0.5 pg/mL
[9] = 30 ng/mL LPS and 0.1 μM Iso simultaneously

Sequence of β-AR mediating cAMP production in THP-1 cells (P08588 whole entry): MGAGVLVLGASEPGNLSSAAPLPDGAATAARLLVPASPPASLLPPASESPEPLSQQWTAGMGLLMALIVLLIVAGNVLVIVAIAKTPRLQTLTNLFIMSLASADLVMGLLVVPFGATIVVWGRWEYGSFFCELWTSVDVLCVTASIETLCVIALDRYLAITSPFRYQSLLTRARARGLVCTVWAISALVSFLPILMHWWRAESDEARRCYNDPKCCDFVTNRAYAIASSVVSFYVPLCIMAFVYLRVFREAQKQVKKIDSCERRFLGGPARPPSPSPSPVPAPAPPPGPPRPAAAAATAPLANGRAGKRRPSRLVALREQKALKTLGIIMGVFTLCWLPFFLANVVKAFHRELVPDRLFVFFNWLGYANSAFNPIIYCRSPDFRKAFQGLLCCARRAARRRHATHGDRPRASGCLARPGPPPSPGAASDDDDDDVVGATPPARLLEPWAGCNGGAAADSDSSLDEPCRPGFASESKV

## Cc1ccc(OCC(O)C(C)NC(C)C)c2c1CCC2 (racemic) [ICI 118,551, erythro-dl-1-(7-methylindan-4-yloxy)-3-isopropylaminobutan-2-ol]
[1]
  Ki: 46 nM
[2]; THP-1 cells
  effect of inhibitor or antagonist alone on IL-1β generation: no qualitative changes
[3]
  Schild regression slope: 1.0 ± 0.1

## CC(C)(C)NCC(O)COc1cccc2[nH]c(C#N)c(I)c12 (single isomer, unassigned; (-)) [^125I-CYP, (–)3-[^125I]iodocyanopindolol]
[4]; read-out: equilibrium dissociation constant (Kd) of 125I-CYP, saturation binding
  Kd: 0.0301 ± 0.0051 nM

## CC(C)(C)NCC(O)COc1cccc2[nH]c(C#N)c([125I])c12 (single isomer, unassigned; (-)) [^125I-CYP, (–)3-[^125I]iodocyanopindolol]
[4]; labeled by 125I-CYP
  number of binding sites (Bmax): 341 ± 77 fmol/mg protein

## Cn1cc(C(F)(F)F)nc1-c1ccc(OCC(O)CNCCOc2ccc(O)c(C(N)=O)c2)cc1 (stereo not shown) [CGP 20712A, 1-(2-((3-carbamoyl-4-hydroxy)phenoxy)ethylamino)-3-(4-(1-methyl-4-trifluoromethyl-2-imidazoylyl)phenoxy)-2-propanol methanesulfonate]
[2]; THP-1 cells
  effect of inhibitor or antagonist alone on IL-1β generation: no qualitative changes

## Cl.Cl.O=S(=O)(NCCNCC=Cc1ccc(Br)cc1)c1cccc2cnccc12 [H-89, N-[2-(p-bromocinnamylamino)ethyl]-5-isoquinolinesulfonamide dihydrochloride]
[2]; THP-1 cells
  effect of inhibitor or antagonist alone on IL-1β generation: did not alter responses
[2]; THP-1 lysates, 100 nM H-89 pre-incubation then 30 ng/mL LPS plus 0.1 μM Iso (Fig 7), n = 6
  IL-1β produced, fold over LPS: 1.4±0.1 fold over LPS

## CC(C)NCC(O)c1ccc(O)c(O)c1 (stereo not shown) [Iso, isoproterenol]
[5]
  difference in IL-1β released into media between LPS alone and LPS plus Iso: > 4 fold
[5]; 0.1 μM Iso plus 30 ng/mL LPS, n = 6
  secreted IL-1β in media: 76.3 ± 24.7 pg/mL
[5]; [8]
  secreted IL-1β in media: 4.8 ± 1.4 pg/mL
[6]; [9]
  LPS mediated TNF-α expression versus LPS alone: qualitative loss; also recorded: decreases
  soluble IL-1β versus LPS stimulation alone: qualitative increase
[6]; 0.1 μM Iso only
  expression pattern of inflammatory mediators versus basal: no differences in the expression pattern
[2]; THP-1 cells, LPS plus Iso versus LPS alone
  synergistic modulation of LPS mediated production of IL-1β: > 4 fold

## lipopolysaccharide [LPS]
[5]; [8]
  secreted IL-1β in media: 16.9 ± 2.6 pg/mL
[7]
  IL-1β produced, fold over basal: 3.4 ± 1.8 fold
[6]; 30 ng/mL LPS only
  expression of secreted IL-1β and TNF-α versus control: qualitative increase
[2]; THP-1 lysates, individual treatment (30 ng/mL LPS or 0.1 μM Iso alone), 2 hr, n = 5
  IL-1β produced, fold over basal: 12.1 ± 3.9 fold

Reference: article PMC2862727 (Molecular immunology, 2010)
